Reference: patent US20200326330A1, “Device and method for multidimensional cell culture” (Premas Biotech Pvt Ltd, priority 2019, published 2020)

Tests used:
MCF-7 tissueoids [1] = test: Morphology and growth of MCF-7 tissueoids on AXTEX-4D treated with doxorubicin; type: cell-based, human; settings: 3 days
MCF-7 tissueoids [2] = test: Prestoblue viability of MCF-7 tissueoids (3D) on AXTEX-4D
MCF-7 cells [3] = test: Prestoblue viability of MCF-7 2D monolayer culture; type: cell-based; settings: Homo sapiens, MCF7, 1 μM doxorubicin, 48 hrs, read-out: viability (prestoblue, normalized with vehicle control as 100%)
MCF-7 cells [4] = test: Morphology and growth of MCF-7 cells in 2D monolayer culture treated with doxorubicin; type: cell-based, human; settings: MCF-7 2D monolayer, 3 days

## COc1cccc2c1C(=O)c1c(O)c3c(c(O)c1C2=O)C[C@@](O)(C(=O)CO)C[C@@H]3O[C@H]1C[C@H](N)[C@H](O)[C@H](C)O1 [doxorubicin, Doxorubicin]
MCF-7 tissueoids [1]; 2.5 μM doxorubicin
  growth of tissueoids: not inhibited
MCF-7 tissueoids [1]; 5 μM doxorubicin
  growth of tissueoids: Partial growth inhibition
MCF-7 tissueoids [1]; higher concentration (5)
  tissueoid morphology at higher concentration: shrinking of the tissueoid was visible
MCF-7 tissueoids [2]; Homo sapiens, MCF7, 48 h, read-out: viability (prestoblue, normalized with vehicle control as 100%)
  viability at 1 µM: ~80%
MCF-7 tissueoids [2]; MCF-7 tissueoids, 1 μM doxorubicin
  resistance of tissueoids compared to vehicle control: partial resistance
MCF-7 cells [3]
  viability at 1 µM: 35%
MCF-7 cells [4]; 1 μM doxorubicin
  morphology (vacuoles) in 2D culture: Vacuoles were observed
MCF-7 cells [4]; vs DMSO vehicle control
  growth inhibition in 2D culture: Dose-dependent growth inhibition
